Assay results from patent US12209102B2, “Heterocyclic compounds and uses thereof” (Kumquat Biosciences Inc., priority 2022, dated 2025).

Key:
[1] = test system: SW620 cells; test: Ras cellular assay, growth of cells with K-Ras G12V mutation (CellTiter-Glo); assay type: cell-based; conditions: Homo sapiens, SW-620; cell growth, Example 9, G12V mutation; read-out: IC50 against SW620 cells
In short: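 SW620 (K-Ras G12V) cells, e.g. 800/well in RPMI-1640 with 10% heat-inactivated FBS on standard or ultra-low attachment plates, were dosed the day after plating with e.g. a 10-point 3-fold series. Viability by CellTiter-Glo luminescence about 6 days later; IC50 from four-parameter fit.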

[2] = test system: A549 cells; test: Ras cellular assay, growth of cells with K-Ras G12S mutation (CellTiter-Glo); assay type: cell-based; conditions: Homo sapiens, cell growth, Example 9, G12S mutation, read-out: IC50 against A549 cells
Experimental: For example, this assay can be also used to assess a selective growth inhibition of a mutant Ras protein relative to a wildtype, or relative to a different mutant Ras protein.
A549 (ATCC CCL-185) and LS123 (ATCC CCL-255) cell lines comprise a G12S mutation and can be used to assess Ras cellular signaling in vitro, e.g., in response to the compounds herein. A549 culture medium is prepared with RPMI-1640 and 10% heat-inactivated FBS. LS123 culture medium is prepared with RPMI-1640 and 10% heat-inactivated FBS. A CellTiter-Glo (CTG) luminescent based assay (Promega) is used to assess growth of the cells, as a measurement of the ability of the compounds herein to inhibit Ras signaling in the cells. The cells (e.g., 800 per well) are seeded in their respective culture medium in standard tissue culture-treated 384-well format plates (Falcon #08-772-116) or ultra-low attachment surface 384-well format plates (S-Bio #MS-9384WZ). The day after plating, cells are treated with a dilution series (e.g., a 10 point 3-fold dilution series) of the compounds herein (e.g., approximately 40 μL final volume per well). Cell viability can be monitored (e.g., approximately 6 days later) according to the manufacturer's recommended instructions, where the CellTiter-Glo reagent is added (e.g., approximately 10 μL), vigorously mixed, covered, and placed on a plate shaker (e.g., approximately for 20 min) to ensure sufficient cell lysis prior to assessment of luminescent signal. The IC50 values are determined using the four parameter fit. The resulting IC50 value is a measurement of the ability of the compounds herein to reduce cell growth of Ras-driven cells (e.g., tumor cell lines) in vitro and/or in vivo.

[3] = target: T1, K-Ras G12D (Homo sapiens, UniProt P01116, G12D); test: HTRF resonance energy transfer assay, K-Ras G12D / SOS1 interaction; assay type: biochemical; conditions: HTRF assay of Example 5; read-out: IC50 against K-Ras G12D
T1 construct: made in house; host or cells: E. coli BL21 (DE3)
T1 sequence (P01116 1-188 isoform P01116-2 G12D): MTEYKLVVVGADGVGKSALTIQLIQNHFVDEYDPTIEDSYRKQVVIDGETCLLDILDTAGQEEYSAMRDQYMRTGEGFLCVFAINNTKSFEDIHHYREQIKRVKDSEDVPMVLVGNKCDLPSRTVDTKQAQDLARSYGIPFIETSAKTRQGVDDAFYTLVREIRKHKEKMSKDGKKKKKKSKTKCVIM
In short: (§1)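 GST-tagged K-Ras (WT or mutant) bound to anti-GST-Eu donor was mixed with His-hSOS1 bound to anti-6His-XL665 acceptor in ~5 mM HEPES pH 7.4, 150 mM NaCl, 1 mM DTT, 0.05% BSA, 0.0025% Igepal. HTRF (ex 337, em 620/665 nm) was read after ~10 min or longer. IC50 came from the 665/620 ratio over duplicates from 10 μM to 0.01 μM.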

[4] = target: T2, K-Ras WT (Homo sapiens, UniProt P01116); test: HTRF resonance energy transfer assay, K-Ras WT / SOS1 interaction; assay type: biochemical; conditions: HTRF assay of Example 5; read-out: IC50 against K-Ras WT
T2 construct: made in house; host or cells: E. coli BL21 (DE3)
T2 sequence (P01116 1-188 isoform P01116-2): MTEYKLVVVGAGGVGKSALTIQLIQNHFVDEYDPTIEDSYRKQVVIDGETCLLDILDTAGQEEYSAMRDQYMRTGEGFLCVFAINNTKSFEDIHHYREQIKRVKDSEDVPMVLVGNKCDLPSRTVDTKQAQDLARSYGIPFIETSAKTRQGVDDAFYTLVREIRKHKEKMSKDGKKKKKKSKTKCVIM
In short: as §1

[5] = target: T3, K-Ras G12V (Homo sapiens, UniProt P01116, G12V); test: HTRF resonance energy transfer assay, K-Ras G12V / SOS1 interaction; assay type: biochemical; conditions: HTRF assay of Example 5; read-out: IC50 against K-Ras G12V
T3 construct: made in house; host or cells: E. coli BL21 (DE3)
T3 sequence (P01116 1-188 isoform P01116-2 G12V): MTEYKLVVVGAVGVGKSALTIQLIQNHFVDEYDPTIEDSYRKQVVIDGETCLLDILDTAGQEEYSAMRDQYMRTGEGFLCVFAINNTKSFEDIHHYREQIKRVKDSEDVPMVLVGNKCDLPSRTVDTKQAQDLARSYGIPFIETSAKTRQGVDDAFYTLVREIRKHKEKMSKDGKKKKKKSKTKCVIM
In short: as §1

[6] = target: T4, K-Ras G12S (Homo sapiens, UniProt P01116, G12S); test: HTRF resonance energy transfer assay, K-Ras G12S / SOS1 interaction; assay type: biochemical; conditions: HTRF assay of Example 5; read-out: IC50 against K-Ras G12S
T4 construct: made in house; host or cells: E. coli BL21 (DE3)
T4 sequence (P01116 1-188 isoform P01116-2 G12S): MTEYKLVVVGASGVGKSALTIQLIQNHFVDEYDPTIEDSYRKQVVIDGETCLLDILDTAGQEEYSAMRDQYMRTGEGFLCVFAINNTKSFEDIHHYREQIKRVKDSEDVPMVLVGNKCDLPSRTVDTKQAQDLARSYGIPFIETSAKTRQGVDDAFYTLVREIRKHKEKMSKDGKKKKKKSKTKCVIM
In short: as §1

Row | SMILES | IC50 [1] | IC50 [2] | IC50 [3] | IC50 [4] | IC50 [5] | IC50 [6]
1 | N#Cc1c(N)sc2c(F)ccc(-c3c(Cl)c4c5c(nc(OC[C@@]67CCCN6C[C@H](F)C7)nc5c3F)N(C3CCN(C(=O)C5CC5C#N)CC3)CCO4)c12 (stereo partly drawn) [Compound 703, 2-amino-4-(8-chloro-4-(1-(2-cyanocyclopropane-1-carbonyl)piperidin-4-yl)-10-fluoro-2-(((2R,7aS)-2-fluorotetrahydro-1H-pyrrolizin-7a(5H)-yl)methoxy)-5,6-dihydro-4H-[1,4]oxazepino[5,6,7-de]quinazolin-9-yl)-7-fluorobenzo[b]thiophene-3-carbonitrile] | < 5 µM | < 5 µM | < 0.1 µM | < 0.1 µM | < 0.1 µM | < 0.1 µM
2 | N#Cc1c(N)sc2c(F)ccc(-c3c(Cl)c4c5c(nc(OC[C@@]67CCCN6C[C@H](F)C7)nc5c3F)N(C3CC(NC(=O)C(F)Cl)C3)CCO4)c12 (stereo partly drawn) [Compound 724, N-(3-(9-(2-amino-3-cyano-7-fluorobenzo[b]thiophen-4-yl)-8-chloro-10-fluoro-2-(((2R,7aS)-2-fluorotetrahydro-1H-pyrrolizin-7a(5H)-yl)methoxy)-5,6-dihydro-4H-[1,4]oxazepino[5,6,7-de]quinazolin-4-yl)cyclobutyl)-2-chloro-2-fluoroacetamide] | < 5 µM | < 5 µM | < 0.1 µM | < 0.1 µM | – | < 0.1 µM
3 | N#Cc1c(N)sc2c(F)ccc(-c3c(Cl)c4c5c(nc(OC[C@@]67CCCN6C[C@H](F)C7)nc5c3F)N(C3CC5(CCNC5)C3)CCO4)c12 (stereo partly drawn) [Compound 1112, 2-amino-4-(8-chloro-10-fluoro-2-(((2R,7aS)-2-fluorotetrahydro-1H-pyrrolizin-7a(5H)-yl)methoxy)-4-(6-azaspiro[3.4]octan-2-yl)-5,6-dihydro-4H-[1,4]oxazepino[5,6,7-de]quinazolin-9-yl)-7-fluorobenzo[b]thiophene-3-carbonitrile] | – | < 5 µM | < 0.1 µM | < 0.1 µM | < 0.1 µM | < 0.1 µM
4 | C[C@H](Oc1nc2c3c(c(Cl)c(-c4ccc(F)c5sc(N)c(C#N)c45)c(F)c3n1)OCCN2C1CCOCC1)[C@@H]1CCCN1C [Compound 904, 2-amino-4-(8-chloro-10-fluoro-2-((S)-1-((S)-1-methylpyrrolidin-2-yl)ethoxy)-4-(tetrahydro-2H-pyran-4-yl)-5,6-dihydro-4H-[1,4]oxazepino[5,6,7-de]quinazolin-9-yl)-7-fluorobenzo[b]thiophene-3-carbonitrile] | < 5 µM | < 5 µM | – | < 0.1 µM | < 0.1 µM | < 0.1 µM
5 | N#Cc1c(N)sc2c(F)ccc(-c3c(Cl)c4c5c(nc(OC[C@@]67CCCN6C[C@H](F)C7)nc5c3F)NCCO4)c12 [Compound 1087, 2-amino-4-(8-chloro-10-fluoro-2-(((2R,7aS)-2-fluorotetrahydro-1H-pyrrolizin-7a(5H)-yl)methoxy)-5,6-dihydro-4H-[1,4]oxazepino[5,6,7-de]quinazolin-9-yl)-7-fluorobenzo[b]thiophene-3-carbonitrile] | – | < 5 µM | < 0.1 µM | < 0.1 µM | < 0.1 µM | < 0.1 µM
6 | C[C@H]1CN(C23CC(C2)C3)c2nc(OC[C@@]34CCCN3C[C@H](F)C4)nc3c(F)c(-c4ccc(F)c5sc(N)c(C#N)c45)c(Cl)c(c23)O1 [Compound 687, 2-amino-4-((6S)-4-(bicyclo[1.1.1]pentan-1-yl)-8-chloro-10-fluoro-2-(((2R,7aS)-2-fluorotetrahydro-1H-pyrrolizin-7a(5H)-yl)methoxy)-6-methyl-5,6-dihydro-4H-[1,4]oxazepino[5,6,7-de]quinazolin-9-yl)-7-fluorobenzo[b]thiophene-3-carbonitrile] | < 5 µM | < 5 µM | < 0.1 µM | < 0.1 µM | – | < 0.1 µM

The next lines start with the values.

Row | IC50 [1] | IC50 [2] | IC50 [3] | IC50 [4] | IC50 [5] | IC50 [6] | SMILES
7 | < 5 µM | < 5 µM | < 0.1 µM | < 0.1 µM | < 0.1 µM | < 0.1 µM | N#Cc1c(N)sc2c(F)ccc(-c3c(Cl)c4c5c(nc(OC[C@@]67CCCN6C[C@H](F)C7)nc5c3F)N(C3CC(N)C3)CCO4)c12 (stereo partly drawn) [Compound 734, 2-amino-4-(4-(3-aminocyclobutyl)-8-chloro-10-fluoro-2-(((2R,7aS)-2-fluorotetrahydro-1H-pyrrolizin-7a(5H)-yl)methoxy)-5,6-dihydro-4H-[1,4]oxazepino[5,6,7-de]quinazolin-9-yl)-7-fluorobenzo[b]thiophene-3-carbonitrile]
8 | < 5 µM | < 5 µM | – | < 0.1 µM | < 0.1 µM | < 0.1 µM | CCC1CC(N2CCOc3c(Cl)c(-c4ccc(F)c5sc(N)c(C#N)c45)c(F)c4nc(OC[C@@]56CCCN5C[C@H](F)C6)nc2c34)CCO1 (stereo partly drawn) [Compound 903, 2-amino-4-(8-chloro-4-(2-ethyltetrahydro-2H-pyran-4-yl)-10-fluoro-2-(((2R,7aS)-2-fluorotetrahydro-1H-pyrrolizin-7a(5H)-yl)methoxy)-5,6-dihydro-4H-[1,4]oxazepino[5,6,7-de]quinazolin-9-yl)-7-fluorobenzo[b]thiophene-3-carbonitrile]
9 | < 5 µM | < 5 µM | – | < 0.1 µM | < 0.1 µM | < 0.1 µM | N#Cc1c(N)sc2c(F)ccc(-c3c(Cl)c4c5c(nc(OC[C@@]67CCCN6C[C@H](F)C7)nc5c3F)N(C3CCC(COC(F)F)C3)CCO4)c12 (stereo partly drawn) [Compound 933, 2-amino-4-(8-chloro-4-(3-((difluoromethoxy)methyl)cyclopentyl)-10-fluoro-2-(((2R,7aS)-2-fluorotetrahydro-1H-pyrrolizin-7a(5H)-yl)methoxy)-5,6-dihydro-4H-[1,4]oxazepino[5,6,7-de]quinazolin-9-yl)-7-fluorobenzo[b]thiophene-3-carbonitrile]
10 | < 5 µM | < 5 µM | – | < 0.1 µM | < 0.1 µM | < 0.1 µM | N#Cc1c(N)sc2c(F)ccc(-c3c(Cl)c4c5c(nc(OC[C@@]67CCCN6C[C@H](F)C7)nc5c3F)N(C3CCC(=C(F)F)C3)CCO4)c12 (stereo partly drawn) [Compound 605, 2-amino-4-(8-chloro-4-(3-(difluoromethylene)cyclopentyl)-10-fluoro-2-(((2R,7aS)-2-fluorotetrahydro-1H-pyrrolizin-7a(5H)-yl)methoxy)-5,6-dihydro-4H-[1,4]oxazepino[5,6,7-de]quinazolin-9-yl)-7-fluorobenzo[b]thiophene-3-carbonitrile]
11 | < 5 µM | < 5 µM | – | < 0.1 µM | < 0.1 µM | – | N#Cc1c(N)sc2c(F)ccc(-c3c(Cl)c4c5c(nc(OC[C@@]67CCCN6C[C@H](F)C7)nc5c3F)N(C3CC5(C3)CC5(F)F)CCO4)c12 (stereo partly drawn) [Compound 1004, 2-amino-4-(8-chloro-4-(1,1-difluorospiro[2.3]hexan-5-yl)-10-fluoro-2-(((2R,7aS)-2-fluorotetrahydro-1H-pyrrolizin-7a(5H)-yl)methoxy)-5,6-dihydro-4H-[1,4]oxazepino[5,6,7-de]quinazolin-9-yl)-7-fluorobenzo[b]thiophene-3-carbonitrile]
